Earlier results in publication PMC11865978, “Cellular Activity of CQWW Nullomer-Derived Peptides” (ACS Omega, 2025).

Experiments:
[1] = test system: normal cell lines and cancer cell lines; details: cited from earlier work
Description: (§1) Closely related to nullomer peptides, rarely observed amino acid stretches have also been studied by Capone et al., who assert that the minimal sufficient antigenic determinants of a protein could be encoded in just five rarely seen amino acids.[20] Complementing this, Patel et al. noted that these rare sequences could be used to enhance antigen-specific immune responses when dosed alongside adjuvant vaccines.[21] It was also noted by Koulouras et al. that human viruses rarely share human nullomers, facilitating host mimicry and immune evasion,[22] an interesting example of this being highligh ...

NCI-60 panel = details: 60 cell lines from human cancers of nine organs; cited from earlier work
Description: as §1

[2] = test system: triple-negative breast cancer mouse model; details: cited from earlier work
Description: as §1

## WCMNW [permutation of pentamer nullomer NWMWC, Alileche et al]
[1]
  mitochondrial impairment: caused mitochondrial impairment in both normal cell lines and cancer cell lines
NCI-60 panel
  lethal effect on NCI-60 panel: lethal to a high fraction of oncogenic cell lines
[2]
  gene expression by transcriptomics in triple-negative breast cancer mouse model: downregulation of key genes involved in the mitochondrial TCA cycle
